This is an account of results in PubChem BioAssay (NCI).

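Five concentrations, 48 hours, 96-well plates. GI50 marks 50% less growth. TGI: total growth inhibition.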

Some test systems named below: SK-OV-3 ovarian; SNB-19 CNS; OVCAR-4 ovarian; NCI-H460 lung; M14 melanoma; MOLT-4 leukemia; CCRF-CEM leukemia; NCI/ADR-RES ovarian; MDA-N; DU-145 prostate.
Assay in all cases: NCI anticancer screen, dose series, 48 h

`O=C([O-])c1ccccc1Nc1ccccc1C(=O)[O-].[OH3+].[Zn+2]`: the TGI with SK-OV-3 ovarian was 39 µM; with SNB-19 CNS, 30.7 µM; with OVCAR-4 ovarian, 39.1 µM; with NCI-H460 lung it was over 100 µM; in the experiment with M14 melanoma, over 100 µM; in the experiment on MOLT-4 leukemia, 99.8 µM. The compound also registered a TGI with CCRF-CEM leukemia of 61.6 µM.

As for `COc1cc(/C=C2\C(=O)Nc3ccc(Cl)cc32)cc(OC)c1OC`, the GI50 with SK-OV-3 ovarian is 13.4 µM; with SNB-19 CNS it was 24.8 µM; in the experiment with OVCAR-4 ovarian it was 43.9 µM; in the experiment with NCI-H460 lung, 24.2 µM; in the experiment on NCI/ADR-RES ovarian, 7.29 µM; in the experiment on MOLT-4 leukemia, 75.1 µM. Moreover, the GI50 with CCRF-CEM leukemia was 7.28 µM. Also, the TGI is 33.8 µM with SK-OV-3 ovarian; over 100 µM in the experiment on SNB-19 CNS; over 100 µM with OVCAR-4 ovarian; over 100 µM in the experiment on NCI-H460 lung; 59.3 µM in the experiment with NCI/ADR-RES ovarian; over 100 µM in the experiment with MOLT-4 leukemia. Moreover, in the experiment with CCRF-CEM leukemia, the TGI was over 100 µM.

As to `O=C1NCN(c2ccccc2)C12CCN(CCCN1CCN(CCOC(c3ccccc3)c3ccccc3)CC1)CC2`, the TGI worked out at 7.12 µM with SK-OV-3 ovarian; 7.77 µM with SNB-19 CNS; 7.47 µM with OVCAR-4 ovarian; 7.45 µM in the experiment with NCI-H460 lung; 3.86 µM in the experiment on M14 melanoma; 8.91 µM in the experiment with NCI/ADR-RES ovarian. For the same compound, the TGI was determined as 2.12 µM in the experiment on MDA-N, 6.4 µM with MOLT-4 leukemia, 7 µM in the experiment on DU-145 prostate and 3.59 µM with CCRF-CEM leukemia.

As for `CCCCC1Nc2ccccc2-c2ccnc(Cl)c21` (stereo unspecified), the TGI is 55.7 µM in the experiment with SK-OV-3 ovarian; 77.7 µM in the experiment with SNB-19 CNS; 91.5 µM in the experiment with OVCAR-4 ovarian; over 100 µM in the experiment with NCI-H460 lung; 43.1 µM in the experiment on M14 melanoma; 99.6 µM in the experiment with NCI/ADR-RES ovarian. For the same compound, the TGI in the experiment with MDA-N was determined as 54.9 µM; with MOLT-4 leukemia, 50.9 µM; with DU-145 prostate, 50.3 µM; in the experiment with CCRF-CEM leukemia it was 52.6 µM.

Turning to `Cc1cc(C)n(CN(CCCCO)Cn2nc(C)cc2C)n1`, the TGI in the experiment with SK-OV-3 ovarian was over 100 µM; in the experiment with SNB-19 CNS, over 100 µM; in the experiment on OVCAR-4 ovarian, 61.9 µM; with NCI-H460 lung it was over 100 µM; in the experiment with M14 melanoma it was 33.9 µM; with NCI/ADR-RES ovarian, 39 µM. The TGI was determined as 35.1 µM in the experiment on MDA-N, 50.7 µM in the experiment on MOLT-4 leukemia, 53.6 µM in the experiment with DU-145 prostate and 1.74 µM with CCRF-CEM leukemia.

For the compound `N=C1c2ccccc2C(=O)c2c(NCCNCCO)ccc(O)c21`, the TGI turned out to be 50.2 µM in the experiment on SK-OV-3 ovarian; 84.8 µM with SNB-19 CNS; 83.3 µM in the experiment on OVCAR-4 ovarian; 15.1 µM with NCI-H460 lung; 24.8 µM in the experiment on M14 melanoma; 10.8 µM in the experiment with MOLT-4 leukemia. The compound also showed a TGI in the experiment on CCRF-CEM leukemia of 53.9 µM.

`COC1=CC(c2ccc[nH]2)=N/C1=C\c1[nH]c(C)c(CC(=O)NCc2ccccc2)c1C`: the GI50 was 1.87 µM in the experiment with SK-OV-3 ovarian, 1.35 µM in the experiment with OVCAR-4 ovarian and 1.39 µM in the experiment with DU-145 prostate. Moreover, the TGI in the experiment with SK-OV-3 ovarian was found to be 3.39 µM; in the experiment with OVCAR-4 ovarian, 2.93 µM; with DU-145 prostate, 2.82 µM.

On to `COc1cc2c(c(OC)c1OC)-c1ccc(OC)c(=O)cc1C(NC(=O)CCCCCNc1ccc(N=[N+]=[N-])cc1[N+](=O)[O-])CC2` (stereo unspecified), for which the TGI in the experiment with SK-OV-3 ovarian is 7.17 µM; with OVCAR-4 ovarian, 16.2 µM; with NCI-H460 lung, under 0.0139 µM; in the experiment with M14 melanoma, 5.44 µM; in the experiment on NCI/ADR-RES ovarian, 5.62 µM; in the experiment on MDA-N, under 0.01 µM. Besides, the values for the TGI with MOLT-4 leukemia and with DU-145 prostate were under 0.01 µM and 0.354 µM, respectively.

Turning to `O=S(=O)(O)c1ccc(N=Nc2ccc(N=Nc3c(O)ccc4ccc(S(=O)(=O)O)cc34)cc2)cc1`, the TGI in the experiment on SK-OV-3 ovarian, in the experiment with SNB-19 CNS, with OVCAR-4 ovarian, in the experiment on NCI-H460 lung, in the experiment on M14 melanoma and in the experiment with NCI/ADR-RES ovarian was over 100 µM in each case. The TGI in the experiment with MDA-N, in the experiment on MOLT-4 leukemia, with DU-145 prostate and with CCRF-CEM leukemia was over 100 µM throughout.

With `CC(C)(C)c1ccc(NS(=O)(=O)c2ccc(N)cc2)cc1`, the TGI was 12.5 µM in the experiment on SK-OV-3 ovarian; over 100 µM with SNB-19 CNS; over 100 µM in the experiment with OVCAR-4 ovarian; over 100 µM in the experiment on NCI-H460 lung; 44.2 µM with M14 melanoma; 75.9 µM with NCI/ADR-RES ovarian. In addition, the TGI turned out to be 54.7 µM in the experiment on MDA-N, 34.5 µM in the experiment on MOLT-4 leukemia, 89.5 µM in the experiment with DU-145 prostate and 40.2 µM in the experiment with CCRF-CEM leukemia.

For `COc1ccccc1N1C(=O)CSC1c1cccc(Oc2ccccc2)c1` (stereo unspecified), the TGI was over 100 µM with SK-OV-3 ovarian; 56.1 µM in the experiment with SNB-19 CNS; 39.6 µM in the experiment on OVCAR-4 ovarian; 33.3 µM with NCI-H460 lung; 33.5 µM in the experiment on M14 melanoma; 46.2 µM in the experiment on NCI/ADR-RES ovarian. For the same compound, the results for the TGI in the experiment on MOLT-4 leukemia, with DU-145 prostate and in the experiment on CCRF-CEM leukemia were 64.8 µM, 38.7 µM and over 100 µM, respectively.
